Assay results published in ChEMBL document CHEMBL4680378, “Discovery of a Lead Compound for Specific Inhibition of Type I Collagen Production in Fibrosis” (ACS Med Chem Lett, 2021).
Active and inactive are the calls of the source. No cut-off for these calls is given here.

Columns and labels:
Primary lung fibroblast [1] = test: Inhibition of type 1 collagen secretion in human lung fibroblasts at 5 ug/ml incubated for 18 hrs followed by addition of fresh medium and measured after 3 hrs by Western blot analysis; type: functional, tissue-based; conditions: dose 5.0 µg/ml
[2] = target: La-related protein 6 (Homo sapiens) (UniProt Q9BRS8); test: Inhibition of LARP6 La module (unknown origin) binding with collagen 5' stem loop mRNA at > 2.5 uM by gel mobility shift assay; conditions: dose microM >2.5
Sequence of La-related protein 6 (Homo sapiens) (Q9BRS8 whole entry, looked up, the tested form may be a part): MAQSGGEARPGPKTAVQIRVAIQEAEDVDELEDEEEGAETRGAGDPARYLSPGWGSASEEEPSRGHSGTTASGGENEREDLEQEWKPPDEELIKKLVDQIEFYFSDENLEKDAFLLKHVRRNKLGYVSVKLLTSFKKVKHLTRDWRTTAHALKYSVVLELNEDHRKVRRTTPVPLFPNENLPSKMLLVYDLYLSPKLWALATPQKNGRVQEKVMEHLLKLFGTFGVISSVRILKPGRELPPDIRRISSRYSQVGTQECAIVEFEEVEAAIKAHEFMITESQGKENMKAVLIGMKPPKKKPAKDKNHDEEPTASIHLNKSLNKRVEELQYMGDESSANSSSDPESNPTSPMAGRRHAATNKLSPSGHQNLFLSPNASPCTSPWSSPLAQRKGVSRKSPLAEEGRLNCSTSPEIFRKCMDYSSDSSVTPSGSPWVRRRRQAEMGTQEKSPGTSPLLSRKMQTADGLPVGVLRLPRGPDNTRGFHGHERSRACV

[3] = Inhibition of type 1 collagen alpha2 polypeptide secretion in human lung fibroblasts incubated for 18 hrs followed by addition of fresh medium and measured after 3 hrs by Western blot analysis; type: functional, tissue-based; conditions: Primary lung fibroblast
[4] = Inhibition of type 1 collagen alpha1 polypeptide secretion in human lung fibroblasts incubated for 18 hrs followed by addition of fresh medium and measured after 3 hrs by Western blot analysis; type: functional, tissue-based; conditions: Primary lung fibroblast
[5] = target: La-related protein 6 (Homo sapiens) (UniProt Q9BRS8); test: Inhibition of LARP6 La domain (unknown origin) binding with collagen 5' stem loop mRNA at > 1 uM by gel mobility shift assay; conditions: dose microM >1
[6] = target: La-related protein 6 (Homo sapiens) (UniProt Q9BRS8); test: Inhibition of LARP6 La domain (unknown origin) binding with collagen 5' stem loop mRNA assessed as decrease in La domain bound band intensity at 1 to 3 uM by gel mobility shift assay; conditions: dose 1-3 µM
[7] = target: La-related protein 6 (Homo sapiens) (UniProt Q9BRS8); test: Inhibition of LARP6 La module (unknown origin) binding with collagen 5' stem loop mRNA assessed as decrease in La module monomer bound band intensity at 1 to 50 uM by gel mobility shift assay; conditions: dose 1-50 µM
[8] = Cytotoxicity against human lung fibroblasts assessed as effect on cell viability; type: tissue-based; conditions: primary lung fibroblast
Primary lung fibroblast [9] = test: Inhibition of type 1 collagen alpha2 polypeptide secretion in human lung fibroblasts at 4 uM incubated for 18 hrs followed by addition of fresh medium and measured after 3 hrs by Western blot analysis; type: functional, tissue-based
Primary lung fibroblast [10] = test: Inhibition of type 1 collagen alpha1 polypeptide secretion in human lung fibroblasts at 5 uM incubated for 18 hrs followed by addition of fresh medium and measured after 3 hrs by Western blot analysis; type: functional, tissue-based
[11] = target: La-related protein 6 (Homo sapiens) (UniProt Q9BRS8); test: Inhibition of LARP6 La module (unknown origin) binding with collagen 5' stem loop mRNA assessed as decrease in La module dimer bound band intensity at 1 to 50 uM by gel mobility shift assay; conditions: dose 1-50 µM

Row | inhibition [2] | inhibition [5] | inhibition [6] | inhibition [7] | inhibition [11] | Structure (SMILES) | inhibition (Primary lung fibroblast [1]) | IC50 [3] | IC50 [4] | Activity [8] | inhibition (Primary lung fibroblast [9]) | inhibition (Primary lung fibroblast [10])
1 | – | – | – | – | – | CCCCCCCCCCCCCC(=O)N[C@H]1C[C@@H](C(N)=O)N(c2cc(N3CCN(C(=O)CCCc4ccccc4)CC3)ncn2)C1 | Active | – | – | – | – | –
2 | Active | Active | Active | Active | Active | CCCCCCCCCCCCCC(=O)N[C@H]1C[C@@H](C(N)=O)N(c2cc(N3CCN(C(=O)c4cc(C)cc(C)c4)CC3)ncn2)C1 | – | 3.1 µM | 4.4 µM | Non-Toxic | Active | Active
